The numbers were not newly measured in article PMC3124134 (Bioorganic & medicinal chemistry, 2010), which cites them from elsewhere.

Molecules are shown by their SMILES.

In one data set the target is Sc ODCase. Particulars: S. cerevisiae ODCase; in words.
The target of the next data set is ODCase. The settings on record: read-out: inhibition constant (Ki); competitive inhibition of ODCase.

Consider `NC(=O)c1[nH]nc([C@@H]2O[C@H](COP(=O)(O)O)[C@@H](O)[C@H]2O)c1O` [compound 8, 4-Hydroxy-5-(5-O-monophosphoryl-β-D-ribofuranos-1-yl)-1H-pyrazole-3-carboxamide], for which the inhibition constants result at Sc ODCase is given as “low nanomolar range”.

As usually defined, the Ki is the equilibrium dissociation constant of an inhibitor or competing ligand from its target. As to `COC(=O)C1=C(C)NC(C)=C(C(=O)OC)C1c1ccccc1[N+](=O)[O-]` [nifedipine], on ODCase, the inhibition constant Ki is 105 µM.
